Data on three compounds can be found in patent publication US20160200762A1, “Bioactive polypeptide DELQ and preparation method as well as application thereof” (SHANGHAI JIAOTONG UNIVERSITY, priority 2012, published 2016).

The nature of data set [1]: in vitro antioxidant activity detection with the [DPPH.] method (radical removing rate). The data set is classed as biochemical. How it is done:
(1) Preparing 1 mmol/L [DPPH.] Methanol Solution:
Weighting […] [DPPH.] with the analytical balance and dissolving in 1 ml methanol solution for obtaining 1 mmol/L [DPPF.] methanol solution, storing with tinfoil for avoiding light, wherein the [DPPF.] methanol solution is prepared before use.
(2) Standard Curve Detection of [DPPH.] Methanol Solution:
Adding 100 μL [DPPH.] methanol standard curve sample into the 96-hole cell culturing plate according to a Table 2, waiting for 90 min at a room temperature, detecting absorbance values at 517 nm with the microplate reader.
Accordingly, curves are fitted and a regression equation is calculated with Excel, and results thereof are shown in FIG. 8 (the regression equation: y=−0.192x+0.2271, R^2=0.9991). […] From the results, absorbance values and [DPPF.] contents have an inverse relationship, i.e. the less the [DPPH.] content is, the […] the absorbance value will be, which means a stronger radical removing ability.
(3) Antioxidant Activity Detection of the Bioactive Polypeptide DELQ with [DPPH.] Method […]
2) blank group: adding 80 μL 1 mmol/L [DPPF.] methanol solution and 20 μL deionized water into the same 96-hole cell culturing plate for forming a blank group.
After adding the test sample, waiting at the room temperature for 90 min, detecting the absorbance values at 517 nm with the microplate reader, and calculating a radical removing ratio according to a following formula, wherein results thereof are shown in Table 3.
A general note: The DPPH test is a chemical assay of radical scavenging.

Data set [2] in a line: total antioxidant capacity detection with the FRAP (Ferric Reducing Ability Power) method. The data set is classed as biochemical. To be noted: sample concentration 4.00 mg/mL. The protocol: (1) Preparing FRAP Working Fluid:
According to the FRAP detection reagent kit, thorough mixing 7.5 mL TPTZ diluent, 750 μL TPTZ solution, and 750 μL detection buffer, incubating in a 37° C. water bath, and using in 2 h.
(2) Drawing a FeSO4 Standard Curve:
Adding 180 μL FRAP working fluid into the 96-hole cell culturing plate, then adding 5 μL FeSO4 standard curve solution according to Table 4, gently mixing, incubating at 37° C. for 3-5 min, and detecting absorbance values at 593 nm with the microplate reader.
FeSO4 concentration and the absorbance value have a good proportional relationship, i.e. the higher the FeSO4 concentration is, the higher absorbance value will be. According to the present invention, FeSO4 standard curve results are shown in FIG. 10, the standard curve has a good linear relationship, wherein a correlation coefficient thereof is 0.998. Precision and accuracy of the FeSO4 curve satisfy testing requirements, and are applicable for subsequent calculation.
(3) Bioactive Polypeptide DELQ Antioxidant Capacity Detection with FRAP Method
Adding 180 μL FRAP working fluid into the 96-hole cell culturing plate, adding 5 μL ddH2O into a blank control hole, adding 5 μL testing sample into a sample hole, adding 5 μL phytic acid into a positive control, gently mixing, incubating at 37° C. for 3-5 min, and detecting absorbance values at 593 nm with the microplate reader. […]

Data set [3] is described as follows: simulated in vitro gastrointestinal digestion (pepsin, then pancreatin), UPLC-Q-TOF-MS analysis. Format: in vitro ADME. To be noted: 500 μg/mL; pepsin pH 2.0 37° C. 90 min, then pancreatin pH 7.5 37° C. 150 min. The protocol: The experiment is divided into two steps. Firstly, preparing a 500 μg/mL DELQ solution, adding pepsin with a ratio of 20 mg the pepsin for every gram of the DELQ, adjusting a pH value of the reaction solution to 2.0, reacting with a temperature kept in a 37° C. thermostatic waterbath for 90 min; then adjusting a pH value to 7.5, and adding pancreatin with a ratio of 40 mg the pancreatin for every gram of the DELQ, and reacting with a temperature kept in a 37° C. thermostatic waterbath for 150 min; inactivating disgestive enzymes with a 95° C. waterbath for 5 min; and freeze-drying the reaction solution for obtaining dry powder thereof, and storing at −20° C. for further use.
Picking 0.2 mg powder sample after stimulated in vitro gastrointestinal digestion, adding 50 μL water and 450 μL pure ethanol, thorough shocking before putting into a −20° C. freezer for 20 min, centrifuging at 15000 rpm for 30 min, collecting 400 μL supernatant for UPLC-Q-TOF-MS analysis. […]
According to the above experiment conditions, the bioactive polypeptides DELQ before and after treatment with digestive enzymes are analyzed by UPLC-Q-TOF-MS, a total ion stream obtained is shown in FIG. 11. […]

Where a SMILES comes first, the peptide text is derived from it.

As for `Cc1c(C)c2c(c(C)c1O)CCC(C)(C(=O)O)O2` (stereo not drawn) [Trolox], the “[DPPH.] radical removing rate” value in data set [1] (positive control 1, 2.5 mg/mL Trolox) is recorded as 99.96%; in data set [1] (positive control 2, 0.025 g/mL Trolox) it was 71.08 ± 0.03%.

On to `O=P(O)(O)O[C@H]1[C@H](OP(=O)(O)O)[C@@H](OP(=O)(O)O)[C@H](OP(=O)(O)O)[C@@H](OP(=O)(O)O)[C@H]1OP(=O)(O)O` [phytic acid], for which the “[DPPH.] radical removing rate” value in data set [1] (negative control, concentration not given) was 58.49 ± 0.08%. For the same compound, the FRAP in data set [2] stood at 0.0089 mmol/g. Also, the “corresponding FeSO4 concentration” value in data set [2] (593 nm) came out at 0.0356 ± 0.0055 mmol/L.

Regarding `CC(C)C[C@H](NC(=O)[C@H](CCC(=O)O)NC(=O)[C@@H](N)CC(=O)O)C(=O)N[C@@H](CCC(N)=O)C(=O)O` [DELQ, Asp-Glu-Leu-Gln] (H-DELQ-OH; N-terminus and C-terminus assumed), in data set [3], the “stability under simulated in vitro gastrointestinal digestion” value is “stable”.
